Test results reported in PubChem BioAssay AID1996.
Values after ≈ are worked out from the molar mass of the structure shown.

Conditions: buffer; pH 7.4; 200.0 µM

Compound	solubility kinetic
Cc1nc(C)c(-c2csc(Nc3ccc(S(N)(=O)=O)cc3)n2)s1	0.3 µg/mL (≈ 0.819 µM)
COc1cc(CNCC2CCCO2)ccc1OCC(N)=O.Cl (centres undefined)	49 µg/mL
CC1CN(C(=O)c2cc3cc([N+](=O)[O-])ccc3s2)CC(C)O1 (centres undefined)	18.5 µg/mL (≈ 57.7 µM)
Cc1ccc(Nc2nc(C)cc(C)c2C(N)=O)c(C)c1	> 40.4 µg/mL
CC1(C)Cc2c(sc3c2c(N)nc(=S)n3Cc2ccccc2)CO1	2.3 µg/mL (≈ 6.43 µM)
C=CCn1cc(/C=C2\SC(N3CCOCC3)=NC2=O)c2ccccc21	9.5 µg/mL (≈ 26.9 µM)
CCOc1cc(CNc2ccc(N3CCCC3)cc2)cc(Cl)c1OC	< 0.4 µg/mL
Cc1cc(C(=O)N2CCOCC2)ccc1[N+](=O)[O-]	> 37.5 µg/mL
CCn1c(N)c(Br)c(=O)[nH]c1=O	> 35.1 µg/mL
COc1ccc(/C(N)=N/OC(=O)CCC2CCCC2)cc1OC	8 µg/mL (≈ 25 µM)
CC(C)CCN1CCN(C2CSCCSC2)CC1CCO (centres undefined)	> 49.9 µg/mL
COc1cc(-c2cc(C(=O)Nc3ccc(C)c(S(=O)(=O)N4CCOCC4)c3)c3ccccc3n2)cc(OC)c1OC	6.7 µg/mL (≈ 11.6 µM)
CCCCC/C(=N/O)c1c(C)[nH]c2ccccc12	29.8 µg/mL (≈ 122 µM)
Cc1ccc2nc(C)c3c(c2c1)SCC3	11.3 µg/mL (≈ 52.5 µM)
O=C1OCC2=C1C(c1ccc(F)cc1)CC(=O)N2c1ccc(F)cc1 (centres undefined)	> 51.2 µg/mL
CC(=O)Nc1ccc(C(F)(F)F)cc1Cl	23.1 µg/mL (≈ 97.2 µM)
O=[N+]([O-])c1ccc(Cl)c(CN2CCCCCC2)c1	13.8 µg/mL (≈ 51.3 µM)
Nc1cc(Cl)ccc1C(=O)OCC(=O)N1CCCCCC1	5.4 µg/mL (≈ 17.4 µM)
c1ccc(-c2cc(NCCN3CCCCC3)c3ccccc3n2)cc1	> 49.7 µg/mL
C1CN(c2nc3nonc3nc2N2CCSCC2)CCO1	41.1 µg/mL (≈ 133 µM)
Cc1ccc(Nc2nc(N)nc(CCl)n2)cc1	> 37.5 µg/mL
c1ccc(N2CCOCCOCCOCCOCC2)cc1	> 44.3 µg/mL
O=C(O)C1CCCN1S(=O)(=O)c1ccc(F)cc1 (centres undefined)	> 41 µg/mL
CC1CC(C)CN(C(=O)c2ccc(S(=O)(=O)N3CCCCC3)cc2)C1 (centres undefined)	5.1 µg/mL (≈ 14 µM)
Cc1cccc(NC(=S)N(C)C)c1C	> 31.2 µg/mL
CC1CCCCN1CCn1c(=S)[nH]c2cc3c(cc2c1=O)OCO3 (centres undefined)	> 52.1 µg/mL

Continued, values first:

solubility kinetic	Compound
13.7 µg/mL (≈ 47 µM)	COc1ccc(C(=O)NC(=O)COC(=O)C2CC2C)cc1 (centres undefined)
47.4 µg/mL (≈ 138 µM)	COc1ccc(C)cc1NC(=S)N1CCN(c2ncccn2)CC1
> 53.3 µg/mL	CCOC(=O)c1cc(NC(=O)c2cccnc2)ccc1N1CCOCC1
11.7 µg/mL (≈ 32.9 µM)	COc1cccc(C(=O)OCC(=O)N2CCc3ccccc3C2)c1OC
> 52.4 µg/mL	CC(=O)NS(=O)(=O)c1ccc(NC(=S)Nc2ccccc2)cc1
> 32.9 µg/mL	CC(C)n1c(NCCO)nc2ccccc21
5 µg/mL (≈ 15.9 µM)	COc1ccc(C(=O)NCCNc2ccc([N+](=O)[O-])cc2)cc1
2.6 µg/mL (≈ 8.46 µM)	Cc1ccc(CNC(=O)c2cc(=O)c3ccc(C)cc3o2)cc1
> 69.1 µg/mL	Cc1cc(=O)oc2cc(OCC(=O)OC(C)C(=O)Nc3ccc(S(N)(=O)=O)cc3)ccc12 (centres undefined)
0.5 µg/mL (≈ 1.21 µM)	Cc1noc(-c2ccc(Cl)cc2)c1C(=O)O/N=C(\N)c1ccc(C(C)(C)C)cc1
> 51.2 µg/mL	CC(=O)Nc1ccc(S(=O)(=O)Nc2cccc3cccnc23)cc1
> 43.4 µg/mL	Cc1ccsc1C(=O)NCC(=O)OCc1ccccc1
> 40.6 µg/mL	CCCCNC(=O)NS(=O)(=O)c1ccc(C)cc1
6.8 µg/mL (≈ 19.9 µM)	CC1CCCCC1NC(=O)COC(=O)c1cc(=O)[nH]c2ccccc12 (centres undefined)
37.8 µg/mL (≈ 134 µM)	CCOC(=O)N1CCC(NC(=O)c2cccs2)CC1
< 0.8 µg/mL	COc1ccc(C(=O)O/N=C2\CCS(=O)(=O)c3sccc32)cc1
> 48.7 µg/mL	Cc1ccc(C)c(NC(=O)CCC(=O)N/N=C/c2cccnc2)c1

solubility kinetic	Compound
> 46 µg/mL	O=C(NNC(=S)NC(=O)c1cccs1)c1cccnc1
26.5 µg/mL (≈ 73.5 µM)	CC(C)Nc1nc(SC(C)C(=O)Nc2ccccc2)nc(N(C)C)n1 (centres undefined)
4.1 µg/mL (≈ 16.3 µM)	O=c1[nH]c(COc2ccccc2)nc2ccccc12
> 54.7 µg/mL	CC1C(=O)N2CCCc3cc(NC(=O)C(=O)NCc4ccccn4)cc1c32 (centres undefined)
2.7 µg/mL (≈ 7.04 µM)	CCc1cccc(C)c1NC(=S)NCC1CCN(c2ccc(OC)cc2)C1 (centres undefined)
26 µg/mL (≈ 73.4 µM)	CC(=O)Nc1cccc(NC(=S)Nc2cccc(Cl)c2Cl)c1
3.9 µg/mL (≈ 11.6 µM)	CCCNC(=O)N1CCN(C(c2ccccc2)c2ccccc2)CC1
> 44.7 µg/mL	CN(C)CCN(Cc1cccs1)c1ccccn1.Cl
> 48.5 µg/mL	COc1cccc(/C=C/C(=O)N2CCN(c3ccccn3)CC2)c1
8.3 µg/mL (≈ 27.3 µM)	COc1cc(C(C)=O)ccc1OCC(=O)Nc1cc(C)on1
> 47.5 µg/mL	S=C1SCN(Cc2cccnc2)CN1Cc1cccnc1
2.1 µg/mL (≈ 5.86 µM)	CC(=O)Nc1ccc(NC(=O)CC(c2ccccc2)c2ccccc2)cc1
10.4 µg/mL (≈ 22.7 µM)	CC(=O)c1ccc(OCCCC(=O)Nc2cccc(S(=O)(=O)N3CCCCCC3)c2)cc1
21.7 µg/mL (≈ 67.5 µM)	N#CCCN(Cc1ccccc1)C(=O)Nc1ccc2c(c1)CCO2
> 30.3 µg/mL	Cc1oc(C(N)=O)nc1-c1ccccc1
> 42.3 µg/mL	Cc1cc(/C=C2/NC(=O)NC2=O)c(C)n1-c1ccncc1
